# US20070218475A1, “Efficient drug screening for protein targets” (priority 2005, published 2007)
# How the values were obtained:
# Shh signaling = assay: Shh-LIGHT2 assay for Hh pathway activation (Gli-dependent luciferase reporter); assay type: cell-based, mouse; settings: Shh-LIGHT2 mouse cultured cell assay; read-out: IC50, inhibition of Shh signaling
# SmoA1 = biological target: T1, SmoA1 (Mus musculus, UniProt P56726, W539L); assay: Fluorescence (BODIPY-cyclopamine) binding assay, SmoA1-expressing Cos-1 cells; settings: flow cytometry
# T1 construct: expressed in transfected cells; host or cells: Cos-1
# T1 sequence (P56726 33-793 W539L): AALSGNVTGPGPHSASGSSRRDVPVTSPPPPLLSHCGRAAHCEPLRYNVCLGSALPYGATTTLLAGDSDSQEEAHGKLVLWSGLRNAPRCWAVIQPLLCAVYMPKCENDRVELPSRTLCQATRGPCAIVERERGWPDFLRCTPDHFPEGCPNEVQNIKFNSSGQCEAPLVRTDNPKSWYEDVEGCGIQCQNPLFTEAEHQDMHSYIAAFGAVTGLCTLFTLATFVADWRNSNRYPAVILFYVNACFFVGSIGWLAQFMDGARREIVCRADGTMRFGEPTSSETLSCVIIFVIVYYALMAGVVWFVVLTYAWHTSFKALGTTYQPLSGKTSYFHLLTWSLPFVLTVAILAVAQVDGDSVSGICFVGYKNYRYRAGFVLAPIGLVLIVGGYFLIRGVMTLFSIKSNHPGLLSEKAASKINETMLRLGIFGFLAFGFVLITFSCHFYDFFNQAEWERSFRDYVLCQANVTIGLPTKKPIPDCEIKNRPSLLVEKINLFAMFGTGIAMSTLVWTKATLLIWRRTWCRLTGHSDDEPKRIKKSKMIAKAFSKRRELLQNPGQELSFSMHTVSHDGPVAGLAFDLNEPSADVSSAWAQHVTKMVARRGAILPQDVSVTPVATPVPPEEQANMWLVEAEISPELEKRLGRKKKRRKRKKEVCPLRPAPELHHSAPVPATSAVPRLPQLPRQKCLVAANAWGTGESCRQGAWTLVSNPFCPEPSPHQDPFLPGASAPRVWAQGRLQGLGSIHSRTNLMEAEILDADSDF
# Description: (§1) Fluorescence binding assay: Cos-1 cells were transfected in 6-well plates with the described expression vectors (1 μg/well), and after two days, incubated in DMEM containing 10% fetal bovine serum, 5 nM BODIPY-cyclopamine, and various concentrations of the indicated competitors for 4-6 h at 37° C. For flow cytometry experiments, the cells were then trypsinized, collected by centrifugation, resuspended in phenol red-free DMEM containing 0.5% bovine calf serum, and analyzed for green fluorescence (FACScan, Beckton Dickinson). A fluorescence intensity range that excludes non-transfected cells was then selected for quantification of specific BODIPY-cyclopamine binding (see brackets in FIGS. 2C, 2D, and 3A). Curve fitting analysis was performed with Kaleidograph (Synergy Software).
# SmoΔCRD = biological target: T2, SmoΔCRD (Mus musculus, UniProt P56726, DEL68-182); assay: Fluorescence (BODIPY-cyclopamine) binding assay, Cos-1 cells expressing SmoΔCRD; settings: Cos-1 cells, flow cytometry
# T2 construct: expressed in transfected cells; host or cells: Cos-1
# T2 sequence (P56726 with tags, fused parts or gaps DEL68-182): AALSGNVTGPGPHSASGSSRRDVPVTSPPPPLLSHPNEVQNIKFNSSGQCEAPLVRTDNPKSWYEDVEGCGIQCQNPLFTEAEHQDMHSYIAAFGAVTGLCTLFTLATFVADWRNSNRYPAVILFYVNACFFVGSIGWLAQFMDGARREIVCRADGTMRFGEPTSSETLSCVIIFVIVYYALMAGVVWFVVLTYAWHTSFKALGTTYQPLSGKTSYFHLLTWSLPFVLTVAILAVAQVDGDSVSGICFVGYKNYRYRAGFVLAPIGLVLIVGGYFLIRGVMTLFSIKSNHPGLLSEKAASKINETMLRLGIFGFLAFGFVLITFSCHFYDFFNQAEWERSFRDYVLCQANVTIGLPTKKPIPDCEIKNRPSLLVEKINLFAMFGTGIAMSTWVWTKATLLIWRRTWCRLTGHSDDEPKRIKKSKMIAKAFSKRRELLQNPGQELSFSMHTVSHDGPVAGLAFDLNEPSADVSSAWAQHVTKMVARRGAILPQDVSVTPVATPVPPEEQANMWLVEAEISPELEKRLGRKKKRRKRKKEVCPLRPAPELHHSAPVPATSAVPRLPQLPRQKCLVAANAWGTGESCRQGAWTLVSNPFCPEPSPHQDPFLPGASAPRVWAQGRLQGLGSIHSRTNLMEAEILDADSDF
# Excerpt: (§2) Preparation of Smo fusion proteins and deletion mutants: Both Smo-Myc3 and SmoA1-Myc3 are C-terminally fused to three consecutive Myc epitopes. […] Smo-GFP is comprised of green fluorescent protein fused to the C-terminus of Smo, and the fluorescent proteins in SmoA1-YFP, and SmoA1-GFP are similarly fused to the C-terminus of SmoA1. All constructs were generated by PCR and verified by DNA sequencing.
# (§3) For flow cytometry experiments, the cells were then trypsinized, collected by centrifugation, resuspended in phenol red-free DMEM containing 0.5% bovine calf serum, and analyzed for green fluorescence (FACScan, Beckton Dickinson). […] Curve fitting analysis was performed with Kaleidograph (Synergy Software).
# mouse Frizzled7 protein = biological target: T3, mouse Frizzled7 protein (Mus musculus, UniProt Q61090); assay: Fluorescence (BODIPY-cyclopamine) binding assay, Cos-1 cells expressing Frizzled7; settings: flow cytometry
# T3 construct: expressed in transfected cells; host or cells: Cos-1
# Description: as §1
# Smo = biological target: T4, Smo (Mus musculus, UniProt P56726); assay: Fluorescence (BODIPY-cyclopamine) binding assay, Smo-expressing Cos-1 cells; settings: Cos-1 cells transiently transfected, fluorescence microscopy and flow cytometry
# T4 construct: expressed in transfected cells; host or cells: Cos-1
# T4 sequence (P56726 33-793): as the sequence (P56726 33-793 W539L) above, with L507W counted along it
# Description: as §3
# SmoΔCT = biological target: T5, SmoΔCT (Mus musculus, UniProt P56726); assay: Fluorescence (BODIPY-cyclopamine) binding assay, Cos-1 cells expressing SmoΔCT; settings: Cos-1 cells, flow cytometry
# T5 construct: expressed in transfected cells; host or cells: Cos-1
# T5 sequence (P56726 33-555 limits assumed): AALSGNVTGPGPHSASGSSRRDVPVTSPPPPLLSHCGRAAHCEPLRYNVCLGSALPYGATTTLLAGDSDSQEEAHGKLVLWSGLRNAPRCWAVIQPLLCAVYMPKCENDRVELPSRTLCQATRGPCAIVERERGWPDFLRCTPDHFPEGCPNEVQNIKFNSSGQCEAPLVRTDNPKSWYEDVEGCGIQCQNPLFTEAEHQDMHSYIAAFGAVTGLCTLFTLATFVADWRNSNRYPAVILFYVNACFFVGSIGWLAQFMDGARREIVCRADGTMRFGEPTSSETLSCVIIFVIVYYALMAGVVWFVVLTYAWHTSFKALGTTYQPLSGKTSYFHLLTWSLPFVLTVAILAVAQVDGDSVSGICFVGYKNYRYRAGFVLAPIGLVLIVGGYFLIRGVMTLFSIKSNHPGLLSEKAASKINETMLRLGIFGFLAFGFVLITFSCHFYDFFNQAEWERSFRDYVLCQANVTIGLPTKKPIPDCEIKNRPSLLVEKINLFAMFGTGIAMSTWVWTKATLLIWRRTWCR
# Excerpt: as §2, §3
# [1] = biological target: T6, Smo protein from Drosophila (Drosophila melanogaster, UniProt P91682); assay: Fluorescence (BODIPY-cyclopamine) binding assay, Cos-1 cells expressing Drosophila Smo; settings: flow cytometry
# T6 construct: expressed in transfected cells; host or cells: Cos-1
# T6 sequence (P91682 32-1036): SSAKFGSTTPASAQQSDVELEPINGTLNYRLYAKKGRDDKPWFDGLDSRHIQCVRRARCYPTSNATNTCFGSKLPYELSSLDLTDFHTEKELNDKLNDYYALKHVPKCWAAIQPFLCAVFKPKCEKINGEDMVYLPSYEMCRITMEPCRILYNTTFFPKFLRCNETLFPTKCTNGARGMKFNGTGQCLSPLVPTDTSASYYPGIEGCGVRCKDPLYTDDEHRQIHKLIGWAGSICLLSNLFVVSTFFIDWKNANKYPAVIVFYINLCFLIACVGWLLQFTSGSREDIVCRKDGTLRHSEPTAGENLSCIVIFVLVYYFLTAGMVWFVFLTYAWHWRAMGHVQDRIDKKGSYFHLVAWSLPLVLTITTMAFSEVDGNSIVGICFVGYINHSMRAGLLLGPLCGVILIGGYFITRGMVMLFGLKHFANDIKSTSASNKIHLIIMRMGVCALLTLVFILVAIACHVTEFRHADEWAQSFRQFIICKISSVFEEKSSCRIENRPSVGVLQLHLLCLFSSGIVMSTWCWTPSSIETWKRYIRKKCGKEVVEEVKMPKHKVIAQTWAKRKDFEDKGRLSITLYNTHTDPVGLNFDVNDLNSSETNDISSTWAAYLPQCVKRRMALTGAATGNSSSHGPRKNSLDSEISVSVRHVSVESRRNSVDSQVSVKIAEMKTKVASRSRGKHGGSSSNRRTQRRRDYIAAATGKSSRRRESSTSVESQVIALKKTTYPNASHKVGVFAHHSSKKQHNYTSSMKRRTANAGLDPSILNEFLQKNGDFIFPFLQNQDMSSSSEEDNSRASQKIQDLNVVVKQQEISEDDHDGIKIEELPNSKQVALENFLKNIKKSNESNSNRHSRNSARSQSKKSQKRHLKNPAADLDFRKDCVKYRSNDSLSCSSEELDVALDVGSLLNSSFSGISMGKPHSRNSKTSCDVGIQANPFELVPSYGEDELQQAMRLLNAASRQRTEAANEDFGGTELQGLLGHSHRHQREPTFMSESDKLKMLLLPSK
# Description: as §1
compound,measurement,setting,value
CC1=C2CC3C(CC=C4C[C@@H](O)CCC43C)C2CCC12O[C@@H]1CC(C)CN(CCNC(=O)CCCCCNC(=O)CCC3=[N+]4C(=Cc5c(C)cc(C)n5[B-]4(F)F)C=C3)C1C2C (stereo partly shown) [BODIPY-cyclopamine],IC50,Shh signaling,150 nM
same,binding to cells expressing SmoA1,SmoA1,did not bind
same,binding to cells expressing SmoΔCRD,SmoΔCRD,can bind
same,binding to cells expressing mouse Frizzled7,mouse Frizzled7 protein,did not bind
same,binding to Smo-expressing cells,Smo,bound with high capacity
same,binding to cells expressing SmoΔCT,SmoΔCT,can bind
same,binding to cells expressing Drosophila Smo,[1],did not bind
